From patent publication US10932483B2, “Sweetness enhancer” (PepsiCo, Inc., priority 2014, dated 2021)
Several values for one entry are separate records, joined by “and”; a condition that tells them apart may be missing. Identical values can stand only once. Entries after “also recorded” stand apart in the source; their conditions may differ.

Experiments:
human sense of taste [1] = experiment: Taste of sugar solutions with phloroglucinol and salt against sugar controls; assay type: in vivo; details: for Taste: body compared with 8% sugar control: 5% sugar in water
human sense of taste [2] = experiment: Taste of QUAKER Instant Oatmeal containing phloroglucinol; assay type: in vivo
Experimental: Sugar was added to unsweetened QUAKER Instant Oatmeal (IQO) Original flavor. A high sugar control comprising 8 g sugar per bag of IQO (29 g) was prepared. A low sugar control comprising 5 g sugar per bag of IQO (29 g) was also prepared. […] The high control, low control, and variant formulations were placed in individual beakers and combined with about 200 mL of hot water. The resulting mixtures were stirred and then tasted. Taste tests were conducted while the mixtures were still warm and after the mixtures had cooled to room temperature.
The high and low controls described in Example 14 were again prepared. […] The high control, low control, and variant formulations were placed in individual beakers and combined with about 200 mL of hot water. The resulting mixtures were stirred and then tasted. Tasting was performed while the IQO was warm and after the IQO cooled to room temperature.

human sense of taste [3] = experiment: Lab taste test (sip, spit, rinse) of sweetener solutions containing phloroglucinol against reference sweetener solutions; assay type: in vivo
Experimental: (§1) General Tasting Procedure: Unless otherwise specified in a given example, tastings were performed by a single taster using a “sip, spit, rinse” protocol. Under this protocol, the taster: • a. sipped up to about 10 ml of a given solution and assessed the sweetness, mouthfeel, and other characteristics of the solution during its residence in the taster's mouth; • b. spit out the solution after making the assessment; and • c. rinsed with water to cleanse the palate before testing any further samples.
Reference solutions: 5%, 7%, and 9% aqueous sucrose (sugar) solutions were prepared.
Reference solutions: 5%, 7%, and 9% aqueous sucrose solutions were prepared as in Example 1.
Reference solutions: 5%, 7%, 8% and 9% sucrose solutions in aqueous pH 3.0 citrate buffer solutions (citric acid 2.26 g plus trisodium citrate 0.32 g in 2 L water) were prepared.
Reference solutions: 2.5%, 3.5%, and 4% aqueous fructose (Sigma) solutions were prepared.
Reference solutions: 5%, 7%, 8% and 9% aqueous glucose (Sigma) solutions were prepared.
Reference solutions: 5%, 6%, 7%, 8% and 9% aqueous sucrose solutions were prepared. […] The variants were then tasted and assessed for their similarity to the reference solutions.
Reference solutions: 8%, 9%, 10%, and 11% aqueous sucrose solutions were prepared.
Reference solutions: 250 ppm and 320 ppm aqueous rebaudioside A solutions were prepared.

human sense of taste [4] = experiment: Taste of sugar solutions with phloroglucinol and salt against sugar controls; assay type: in vivo; details: for phloroglucinol concentration required to achieve the sweetness of an 11% sugar solution: 8% sugar
Experimental: as §1
Half remained as a low control. Salt (300 ppm) was added to the other half (the “variant”). An 11% sugar solution was prepared as a high control.

human sense of taste [5] = experiment: Taste of phloroglucinol in water, alone or with salt; assay type: in vivo
Experimental: as §1
To analyze this effect, an experiment was conducted to determine whether NaCl could be used as a supplemental sweetness enhancer.

human sense of taste [6] = experiment: Taste of beverages (cola, SIERRA MIST, diet cola) containing phloroglucinol; assay type: in vivo
Experimental: Sources: A bottle of cola concentrate (HFCS-55) and a bottle of concentrate having ⅓ less HFCS (the “Brix-reduced syrup”) were obtained. […] Both concentrates were then used to make cola beverages (volume 4.5 carbonated water) in a 1 plus 5 throw manner.
Experiments were conducted on a sugar reduced cola beverage. A control bottle of cola concentrate (HFCS-55) and a bottle of Brix reduced variant concentrate having 35% less HFCS than the control were used. […] Both concentrates were then used to make cola beverages with volume 4.5 carbonated water in a 1 plus 5 throw manner.
Taste experiments were conducted for a diet cola beverage. Unsweetened diet cola concentrate was used. Control syrup 1 was made by adding 3000 ppm aspartame to the concentrate. Control syrup 2 was made by adding 2400 ppm rebaudioside M to the diet cola concentrate. […] All concentrates were then used to make diet cola beverages with volume 4.5 carbonated water in a 1 plus 5 throw manner.
The finished control diet cola beverage 1 contained 500 ppm aspartame.
A total of 5 diet cola tasters evaluated the four beverages.

[7] = Physicochemical properties of phloroglucinol; details: concentrations described; higher temperatures; sunlight
human sense of taste [8] = experiment: Sweet taste intensity ranking by trained sensory discrimination panelists; assay type: in vivo
Source text: (§2) Panelists were asked to rank the samples in order of sweet taste intensity from low sweet to high sweet. Each panelist tasted each sample twice during the study such that each sample was judged a total of 30 times.
as §2
Panelists were asked to rank the samples in order of sweet taste intensity from low sweet to high sweet. Each panelist was presented a replicate set to render a total of 32 judgment data points.

human sense of taste [9] = experiment: Taste of sugar solutions with phloroglucinol and supplemental sweetness enhancers; assay type: in vivo; details: Example 22: 500 ppm phloroglucinol, 350 ppm rebaudioside C, 8% sugar
Experimental: as §1
Three tasters conducted taste experiments on the blends identified in the table, below.
Experiments were conducted utilizing phloroglucinol and rebaudioside C in a sugar solutions.
Two testers tasted each of solutions 1 through 5, in the table above.
Taste experiments were conducted with sugar solutions comprising phloroglucinol and one of rebaudioside B, rebaudioside M, and trilobatin as set forth in the table, below.
Two testers tasted these solutions.
Five aqueous solutions comprising sugar, phloroglucinol, and/or rubusoside were prepared as set forth in the table below and tested for sweetness.

[10] = Example 17: 800 ppm phloroglucinol, 400 ppm salt, 8% sugar in water
[11] = Example 8: 250 ppm phloroglucinol in 250 ppm aqueous rebaudioside A
[12] = Example 10, second taster: 250 ppm rebaudioside A with 800 ppm phloroglucinol
[13] = Example 13: 800 ppm phloroglucinol in SIERRA MIST
[14] = Example 25: 400 ppm phloroglucinol in 5% sucrose
[15] = Example 26: 400 ppm phloroglucinol and 200 ppm sodium chloride in 5% sucrose
[16] = Example 27: 800 ppm phloroglucinol in 8.475% sucrose

Oc1cc(O)cc(O)c1 [phloroglucinol]
Taste: body compared with 8% sugar control (human sense of taste [1]; 600 ppm phloroglucinol, 400 ppm salt): more body | Taste: body compared with 8% sugar control (human sense of taste [1]; 800 ppm phloroglucinol, 400 ppm salt): more body | Taste: sweet taste as sugar equivalent (human sense of taste [1]; Example 17: 600 ppm phloroglucinol, 600 ppm salt, 8% sugar in water): ≥ 11 % sugar | Taste: body (human sense of taste [1]; [10]): high body | Taste: sweet taste as sugar equivalent (human sense of taste [1]; [10]): 12 % sugar | Taste: sweet taste as sugar equivalent (human sense of taste [1]; Example 17: 800 ppm phloroglucinol, no salt, 8% sugar in water): 11 % sugar | Taste: sweet taste as sugar equivalent (human sense of taste [1]; Example 17: 800 ppm phloroglucinol, no salt, 8% sugar in water, listed as Phloroglucinol): ~11% sugar | sweetness compared with low control (5 g sugar) and high control (8 g sugar) (human sense of taste [2]; Example 14: 5 g sugar and 137 mg phloroglucinol per bag of IQO (29 g), warm and room temperature): sweeter than the low control but not quite as sweet as the high control | sweetness compared with high control (8 g sugar) (human sense of taste [2]; Example 21: 5 g sugar, 100 mg phloroglucinol, 1 g D-psicose per bag of IQO (29 g)): sweetness similar to the high control | sweetness, as equivalent aqueous sucrose reference solution (human sense of taste [3]; Example 1: 400 ppm phloroglucinol in 5% aqueous sucrose, references 5%, 7%, 9% sucrose): > 5% and ~7% | temporal profile and quality of sweet taste (human sense of taste [3]; Example 2: 800 ppm phloroglucinol in 5% aqueous sucrose): sweetness of the variant took a split of a second to show but the backend seemed even sweeter; also recorded: the sweet taste was clean without lingering | sweetness, as equivalent sucrose reference solution (human sense of taste [3]; Example 3: 800 ppm phloroglucinol in 5% aqueous sucrose without buffer, references 5-9% sucrose in pH 3.0 citrate buffer): ~8% | temporal profile and quality of sweet taste (human sense of taste [3]; Example 3: 800 ppm phloroglucinol in 5% aqueous sucrose, references in pH 3.0 citrate buffer): sweetness of the variant took a split of a second to show but the backend seemed even sweeter; also recorded: the sweet taste was clean without lingering | sweetness, as equivalent aqueous fructose reference solution (human sense of taste [3]; Example 4: 800 ppm phloroglucinol in 2.5% aqueous fructose): > 3.5% and ~4% | temporal profile of sweet taste (human sense of taste [3]; Example 4: 800 ppm phloroglucinol in 2.5% aqueous fructose vs 4% fructose): the variant solution was sweeter in backend | sweetness, as equivalent aqueous glucose reference solution (human sense of taste [3]; Example 5: 800 ppm phloroglucinol in 5% aqueous glucose): ~8% and < 9% | dose response of apparent sweetness (FIG. 1) (human sense of taste [3]; Example 6: 40, 100, 200, 400, 600, 800 ppm phloroglucinol in 5% aqueous sucrose): approximately linear correlation between phloroglucinol concentration and apparent sweetness | sweetness, as equivalent aqueous rebaudioside A reference solution (human sense of taste [3]; [11]): ~320 ppm | taste quality (backend, bitter aftertaste of rebaudioside A) (human sense of taste [3]; [11]): a sweeter backend; also recorded: bitter aftertaste of rebaudioside A was not changed | bitterness of the variant solution (human sense of taste [3]; [12]): did not change | sweetness, as equivalent rebaudioside A reference solution (human sense of taste [3]; [12]): ~320 ppm | sweetness, as equivalent aqueous sucrose reference solution (human sense of taste [3]; Examples 2, 10: 800 ppm phloroglucinol in 5% aqueous sucrose, references 5%, 7%, 9% sucrose): > 7% and < 9% and ~8% | sweetness, as equivalent aqueous sucrose reference solution (human sense of taste [3]; Examples 7, 10, 11: 800 ppm phloroglucinol in 8% aqueous sucrose, first, second, third taster): > 10% and ~11% and > 11% | phloroglucinol concentration required to achieve the sweetness of an 11% sugar solution (human sense of taste [4]; in the presence of 300 ppm salt): 500 ppm | phloroglucinol concentration required to achieve the sweetness of an 11% sugar solution (human sense of taste [4]; no salt): 800 ppm | sweetness, as equivalent sugar solution (human sense of taste [4]; Example 15 variant 2: 8% sugar, 500 ppm phloroglucinol, 300 ppm salt): 11 % sugar | sweetness compared with low control (no salt) and 11% sugar high control (human sense of taste [4]; Example 15 variant: 8% sugar, 300 ppm phloroglucinol, 300 ppm salt): much sweeter than the low control, but not quite as sweet as the high control | Taste (human sense of taste [5]; 300 ppm in water): No taste | sweet taste of phloroglucinol by itself (human sense of taste [5]; 300 ppm to 800 ppm in water): No sweet taste was observed; also recorded: does not have any taste | Taste (human sense of taste [5]; 400 ppm in water): No taste | Taste (human sense of taste [5]; 400 ppm phloroglucinol, 100 ppm salt in water): No taste | Taste (human sense of taste [5]; 500 ppm in water): No taste | Taste (human sense of taste [5]; 500 ppm phloroglucinol, 100 ppm salt in water): No taste | Taste (human sense of taste [5]; 600 ppm in water): No taste | Taste (human sense of taste [5]; 600 ppm phloroglucinol, 100 ppm salt in water): No taste | Taste, estimated sugar equivalent (human sense of taste [5]; 600 ppm phloroglucinol, 400 ppm salt in water): ~1% sugar | Taste (human sense of taste [5]; 800 ppm in water): No taste | taste of phloroglucinol in the presence of salt (human sense of taste [5]; Example 15: with sodium chloride): slightly sweet | sweetness of variant cola beverage compared with control cola (11.3 Brix) (human sense of taste [6]; Example 12: 1/3 less HFCS (8 Brix without phloroglucinol), 800 ppm phloroglucinol): equal | mouthfeel and flavor of variant cola beverage (human sense of taste [6]; Example 12: 1/3 less HFCS, 800 ppm phloroglucinol): good mouthfeel; also recorded: more sour but with less caramel sweet flavor | sweetness after storage (human sense of taste [6]; Example 12 cola, stored at 90° F. for 18 days): sweetness remained about the same | body and sourness (human sense of taste [6]; [13]): good body; also recorded: Sourness was about the same | sweetness compared with untreated control (human sense of taste [6]; [13]): much sweeter than the control | sweetness of variant cola beverage compared with control cola (11.3 Brix) (human sense of taste [6]; Example 19: 35% less HFCS (7.5 Brix), 400 ppm phloroglucinol and 1% D-psicose): equal | mouthfeel of variant cola beverage (human sense of taste [6]; Example 19: 400 ppm phloroglucinol and 1% D-psicose): very good mouthfeel | stability in solution [7]: stable and does not precipitate out of solution at the concentrations described herein, or break down at higher temperatures or when exposed to sunlight | sweet taste increased to, as sucrose equivalent (human sense of taste [8]; [14]): approximately 6.4% | sweetness enhancement (human sense of taste [8]; [14]): approximately 28% | sweet taste increased to, as sucrose equivalent (human sense of taste [8]; [15]): approximately 6.6% | sweetness enhancement (human sense of taste [8]; [15]): approximately 32% | statistical comparison with 11.3% sucrose solution (human sense of taste [8]; [16]): statistically indistinguishable from the 11.3% solution | sweet taste increased to, as sucrose equivalent (human sense of taste [8]; [16]): approximately 11.76% | sweetness enhancement (human sense of taste [8]; [16]): about 39% | combination effect with rebaudioside C (human sense of taste [9]): synergistic
